Laboratory results taken from PubChem BioAssay (NCI).
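96-well plates; 48 h exposure; 5 concentrations. Endpoints by linear interpolation between flanking doses. Not reached: highest tested concentration assigned. TGI is the concentration that stops growth completely.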

Experiments:
Assay in all cases: NCI-60 cell line screen, 48 h
[1] = system: A498 renal
[2] = system: A549 NSCLC
[3] = system: ACHN renal
[4] = system: CAKI-1 renal
[5] = system: CCRF-CEM leukemia
[6] = system: COLO 205 colon
[7] = system: DMS 114 small cell lung
[8] = system: DMS 273 small cell lung
[9] = system: EKVX NSCLC
[10] = system: HCC-2998 colon
[11] = system: HCT-116 colon
[12] = system: HCT-15 colon
[13] = system: HL-60(TB) leukemia
[14] = system: HOP-18 NSCLC
[15] = system: HOP-92 NSCLC
[16] = system: HT29 colon
[17] = system: IGROV1 ovarian
[18] = system: K-562 leukemia
[19] = system: KM12 colon
[20] = system: LXFL 529 NSCLC
[21] = system: M14 melanoma
[22] = system: MALME-3M melanoma
[23] = system: MOLT-4 leukemia
[24] = system: NCI-H226 lung
[25] = system: NCI-H23 lung
[26] = system: NCI-H460 lung
[27] = system: OVCAR-4 ovarian
[28] = system: OVCAR-5 ovarian
[29] = system: OVCAR-8 ovarian
[30] = system: RPMI-8226 leukemia
[31] = system: RXF 393 renal
[32] = system: RXF-631 renal
[33] = system: SF-268 CNS
[34] = system: SF-295 CNS
[35] = system: SF-539 CNS
[36] = system: SK-MEL-2 melanoma
[37] = system: SK-MEL-28 melanoma
[38] = system: SN12C renal
[39] = system: SNB-19 CNS
[40] = system: SNB-75 CNS
[41] = system: SNB-78 CNS
[42] = system: SR leukemia
[43] = system: SW-620 colon
[44] = system: TK-10 renal
[45] = system: U251 CNS
[46] = system: UACC-257 melanoma
[47] = system: XF 498 CNS
[48] = system: 786-0 renal
[49] = system: BT-549 breast
[50] = system: DLD-1 colon
[51] = system: DU-145 prostate
[52] = system: HOP-62 NSCLC
[53] = system: HS 578T breast
[54] = system: KM20L2 colon
[55] = system: LOX IMVI melanoma
[56] = system: M19-MEL melanoma
[57] = system: MCF7 breast
[58] = system: MDA-MB-231 breast
[59] = system: MDA-MB-435
[60] = system: MDA-N
[61] = system: NCI-H522 lung
[62] = system: NCI/ADR-RES ovarian
[63] = system: OVCAR-3 ovarian
[64] = system: PC-3 prostate
[65] = system: SK-MEL-5 melanoma
[66] = system: SK-OV-3 ovarian
[67] = system: T-47D breast
[68] = system: UACC-62 melanoma
[69] = system: UO-31 renal

O=C(Nc1ccc2[nH]c3c(-c4ccccc4)nccc3c2c1)c1ccccc1[N+](=O)[O-] was tested, and the TGI [1] was 9.47 µM, the TGI [2] was > 100 µM and the TGI [3] was > 100 µM. For the same molecule, the TGI [4] was > 100 µM, the TGI [5] was > 100 µM and the TGI [6] was 23.5 µM. The TGI [7] was > 100 µM, the TGI [8] was 3.76 µM and the TGI [9] was > 100 µM. The TGI [10] was 11.4 µM, the TGI [11] was > 100 µM and the TGI [12] was 5.32 µM. The TGI [13] was 10.6 µM, the TGI [14] was > 100 µM and the TGI [15] was 8.97 µM. The TGI [16] was 4.3 µM, the TGI [17] was > 100 µM and the TGI [18] was > 100 µM. For the same molecule, the TGI [19] was > 100 µM, the TGI [20] was 47.2 µM and the TGI [21] was 5.88 µM. It also gave a TGI [22] of 3.64 µM, a TGI [23] of 15.3 µM and a TGI [24] of 6.2 µM. For the same molecule, the TGI [25] was 33.5 µM, the TGI [26] was > 100 µM and the TGI [27] was > 100 µM. The TGI [28] was 4.63 µM, the TGI [29] was > 100 µM and the TGI [30] was > 100 µM. The TGI [31] was 3.69 µM, the TGI [32] was > 100 µM and the TGI [33] was > 100 µM. The TGI [34] was 3.7 µM, the TGI [35] was 3.46 µM and the TGI [36] was 21.4 µM. The TGI [37] was > 100 µM, the TGI [38] was > 100 µM and the TGI [39] was > 100 µM. For the same molecule, the TGI [40] was 9.14 µM, the TGI [41] was > 100 µM and the TGI [42] was 6.97 µM. It also gave a TGI [43] of 37.3 µM, a TGI [44] of 27.6 µM and a TGI [45] of 16.7 µM. The TGI [46] was 30.7 µM and the TGI [47] was 18.9 µM.
For O=[As]O, the TGI [48] was > 100 µM, the TGI [1] was > 100 µM and the TGI [2] was > 100 µM. The TGI [3] was > 100 µM, the TGI [49] was > 100 µM and the TGI [4] was > 100 µM. For the same molecule, the TGI [5] was > 66.8 µM, the TGI [6] was > 100 µM and the TGI [50] was > 100 µM. The TGI [7] was 40.3 µM, the TGI [8] was > 100 µM and the TGI [51] was > 100 µM. For the same molecule, the TGI [9] was > 100 µM, the TGI [10] was > 100 µM and the TGI [11] was > 100 µM. For the same molecule, the TGI [12] was > 100 µM, the TGI [13] was 18.5 µM and the TGI [52] was > 100 µM. For the same molecule, the TGI [15] was > 91.5 µM, the TGI [53] was > 100 µM and the TGI [16] was > 100 µM. The TGI [17] was > 60.4 µM, the TGI [18] was > 89.5 µM and the TGI [19] was > 100 µM. The TGI [54] was > 100 µM, the TGI [55] was 96.9 µM and the TGI [20] was > 100 µM. The TGI [21] was > 96.1 µM, the TGI [56] was 63.6 µM and the TGI [22] was > 59.9 µM. For the same molecule, the TGI [57] was > 100 µM, the TGI [58] was > 100 µM and the TGI [59] was > 100 µM. For the same molecule, the TGI [60] was > 100 µM, the TGI [23] was > 100 µM and the TGI [24] was > 100 µM. For the same molecule, the TGI [25] was > 100 µM, the TGI [26] was > 100 µM and the TGI [61] was > 60.5 µM. For the same molecule, the TGI [62] was > 100 µM, the TGI [63] was > 74.1 µM and the TGI [27] was > 100 µM. For the same molecule, the TGI [28] was > 100 µM, the TGI [29] was > 70.1 µM and the TGI [64] was > 100 µM. For the same molecule, the TGI [30] was > 100 µM, the TGI [31] was > 93.5 µM and the TGI [32] was 22.5 µM. The TGI [33] was > 74.4 µM, the TGI [34] was > 100 µM and the TGI [35] was > 54.3 µM. The TGI [36] was > 100 µM, the TGI [37] was > 100 µM and the TGI [65] was > 61.8 µM. For the same molecule, the TGI [66] was > 100 µM, the TGI [38] was > 95.1 µM and the TGI [39] was > 100 µM. For the same molecule, the TGI [40] was 97.2 µM, the TGI [41] was > 100 µM and the TGI [42] was > 71.5 µM. The TGI [43] was > 100 µM, the TGI [67] was > 100 µM and the TGI [44] was > 100 µM. The TGI [45] was > 52.8 µM, the TGI [46] was > 93.3 µM and the TGI [68] was > 59.3 µM. For the same molecule, the TGI [69] was > 100 µM and the TGI [47] was 36.8 µM.
For Cc1cc2c(c3c1c1ccccc1n3C)C(=O)c1ccccc1C2=O, the TGI [48] was > 100 µM, the TGI [2] was > 100 µM and the TGI [3] was > 100 µM. The TGI [5] was > 100 µM, the TGI [6] was > 100 µM and the TGI [50] was > 100 µM. For the same molecule, the TGI [7] was > 100 µM, the TGI [8] was > 100 µM and the TGI [9] was > 100 µM. The TGI [10] was > 100 µM, the TGI [11] was > 100 µM and the TGI [12] was > 100 µM. The TGI [13] was > 100 µM, the TGI [52] was > 100 µM and the TGI [15] was > 100 µM. The TGI [16] was > 100 µM, the TGI [17] was > 100 µM and the TGI [18] was > 100 µM. The TGI [19] was > 100 µM, the TGI [54] was > 100 µM and the TGI [55] was > 100 µM. For the same molecule, the TGI [20] was > 100 µM, the TGI [21] was > 100 µM and the TGI [56] was > 100 µM. The TGI [22] was > 100 µM, the TGI [23] was > 100 µM and the TGI [25] was > 100 µM. For the same molecule, the TGI [26] was > 100 µM, the TGI [61] was > 100 µM and the TGI [63] was > 100 µM. The TGI [27] was > 100 µM, the TGI [28] was > 100 µM and the TGI [29] was > 100 µM. The TGI [30] was > 100 µM, the TGI [31] was > 100 µM and the TGI [32] was > 100 µM. For the same molecule, the TGI [33] was > 100 µM, the TGI [34] was > 100 µM and the TGI [35] was > 100 µM. For the same molecule, the TGI [36] was > 100 µM, the TGI [37] was > 100 µM and the TGI [65] was > 100 µM. For the same molecule, the TGI [38] was > 100 µM, the TGI [39] was > 100 µM and the TGI [40] was > 100 µM. The TGI [41] was > 100 µM, the TGI [43] was > 100 µM and the TGI [44] was > 100 µM. For the same molecule, the TGI [45] was > 100 µM, the TGI [46] was > 100 µM and the TGI [68] was > 100 µM. The TGI [69] was > 100 µM and the TGI [47] was > 100 µM.
In the case of CCOP(=O)(OCC)C1CC(C)OC1=O (configuration not stated), the TGI [48] is reported as > 100 µM, the TGI [1] is reported as > 100 µM and the TGI [2] is reported as > 100 µM. For the same molecule, the TGI [3] was > 100 µM, the TGI [4] was > 100 µM and the TGI [5] was > 100 µM. For the same molecule, the TGI [6] was > 100 µM, the TGI [50] was > 100 µM and the TGI [7] was > 100 µM. The TGI [8] was > 100 µM, the TGI [9] was > 100 µM and the TGI [10] was > 100 µM. The TGI [11] was > 100 µM, the TGI [12] was > 100 µM and the TGI [13] was > 100 µM. For the same molecule, the TGI [52] was > 100 µM, the TGI [16] was > 100 µM and the TGI [17] was > 100 µM. The TGI [18] was > 100 µM, the TGI [19] was > 100 µM and the TGI [54] was > 100 µM. The TGI [55] was > 100 µM, the TGI [20] was > 100 µM and the TGI [21] was > 100 µM. For the same molecule, the TGI [56] was > 100 µM, the TGI [22] was > 100 µM and the TGI [23] was > 100 µM. For the same molecule, the TGI [25] was > 100 µM, the TGI [26] was > 100 µM and the TGI [63] was > 100 µM. For the same molecule, the TGI [27] was > 100 µM, the TGI [28] was > 100 µM and the TGI [29] was > 100 µM. For the same molecule, the TGI [30] was > 100 µM, the TGI [31] was > 100 µM and the TGI [32] was > 100 µM. For the same molecule, the TGI [33] was > 100 µM, the TGI [34] was > 100 µM and the TGI [35] was > 100 µM. For the same molecule, the TGI [36] was > 100 µM, the TGI [37] was > 100 µM and the TGI [65] was > 100 µM. For the same molecule, the TGI [66] was > 100 µM, the TGI [38] was > 100 µM and the TGI [39] was > 100 µM. For the same molecule, the TGI [40] was > 100 µM, the TGI [41] was > 100 µM and the TGI [43] was > 100 µM. The TGI [44] was > 100 µM, the TGI [45] was > 100 µM and the TGI [46] was > 100 µM. For the same molecule, the TGI [68] was > 100 µM, the TGI [69] was > 100 µM and the TGI [47] was > 100 µM.
